Measured values from patent US20230340011A1 (Asteroid Therapeutics, priority 2022, published 2023).
Like-named read-outs stand apart in the source and are kept apart here.

Assays:
SREBP-2 = SREBP-2 (Homo sapiens (Human), UniProt Q12772); assay: In vitro assay SREBP-2: PathHunter U2OS SREBP-2 Nuclear Translocation Cell Line, U18666A-stimulated; type: cell-based
LXRβ = LXRβ (Homo sapiens (Human), UniProt P55055); assay: In vitro assay LXRβ: PathHunter NHR CHO cells, LXRβ / Steroid Receptor Co-activator Peptide enzyme fragment complementation; type: cell-based; conditions: PathHunter NHR CHO cells, full-length human LXRβ and SRCP, chemiluminescent signal; read-out: LXRβ PPI
Sequence of LXRβ (P55055 whole entry, the tested form may be a part): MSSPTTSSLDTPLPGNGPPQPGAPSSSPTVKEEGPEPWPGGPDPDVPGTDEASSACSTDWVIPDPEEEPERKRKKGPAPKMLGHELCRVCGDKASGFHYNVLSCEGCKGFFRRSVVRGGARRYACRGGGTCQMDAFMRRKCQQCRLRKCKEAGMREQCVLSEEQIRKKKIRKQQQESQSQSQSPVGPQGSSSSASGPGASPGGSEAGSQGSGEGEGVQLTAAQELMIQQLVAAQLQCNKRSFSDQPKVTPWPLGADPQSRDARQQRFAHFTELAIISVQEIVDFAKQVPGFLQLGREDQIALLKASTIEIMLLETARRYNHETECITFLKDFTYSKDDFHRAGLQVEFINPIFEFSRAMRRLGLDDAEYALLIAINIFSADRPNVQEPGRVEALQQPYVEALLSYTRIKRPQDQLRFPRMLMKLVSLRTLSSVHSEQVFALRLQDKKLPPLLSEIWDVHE
Procedure, shortened: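 Enzyme fragment complementation read-out: CHO cells stably expressing ProLink-tagged full-length human LXRβ plus nuclear enzyme acceptor–SRCP fusion, seeded and held overnight at 37° C. Medium with charcoal-dextran filtered serum; final vehicle 1%. Chemiluminescence measured after signal generation.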

[1] = PathHunter U2OS SREBP-2 nuclear translocation cells, U18666A 10 μM, overnight (16 hours)

Row | SMILES | IC50 (SREBP-2; [1]) [µM] | EC50 (LXRβ) [µM] | IC50 (SREBP-2) [µM]
1 | C[C@H](CCC(=O)N1CC[C@H](Oc2ccncc2)C[C@@H]1C)[C@H]1CC[C@H]2[C@@H]3CC=C4C[C@@H](O)CC[C@]4(C)[C@H]3CC[C@]12C [Example 585, (R)-4-((3S,8S,9S,10R,13R,14S,17R)-3-hydroxy-10,13-dimethyl-2,3,4,7,8,9,10,11,12,13,14,15,16,17-tetradecahydro-1H-cyclopenta[a]phenanthren-17-yl)-1-((2S,4S)-2-methyl-4-(pyridin-4-yloxy)piperidin-1-yl)pentan-1-one] | < 0.25 | 0.25 to 1 | –
2 | COCCN(C)C(=O)OC[C@@H](C)[C@H]1CC[C@H]2[C@@H]3CC=C4C[C@@H](O)CC[C@]4(C)[C@H]3CC[C@]12C [Example 349, (S)-2-((3S,8S,9S,10R,13S,14S,17R)-3-hydroxy-10,13-dimethyl-2,3,4,7,8,9,10,11,12,13,14,15,16,17-tetradecahydro-1H-cyclopenta[a]phenanthren-17-yl)propyl (2-methoxyethyl)(methyl)carbamate] | < 0.25 | > 10 | –
3 | C[C@H](CCC(=O)N1CCC(OCc2ccncc2)CC1)[C@H]1CC[C@H]2[C@@H]3CC=C4C[C@@H](O)CC[C@]4(C)[C@H]3CC[C@]12C [Example 546, (R)-4-((3S,8S,9S,10R,13R,14S,17R)-3-hydroxy-10,13-dimethyl-2,3,4,7,8,9,10,11,12,13,14,15,16,17-tetradecahydro-1H-cyclopenta[a]phenanthren-17-yl)-1-(4-(pyridin-4-ylmethoxy)piperidin-1-yl)pentan-1-one] | < 0.25 | > 10 | –
4 | C[C@H](CCC(=O)N1CCN(C(=O)N(C)C2CC2)CC1)[C@H]1CC[C@H]2[C@@H]3CC=C4C[C@@H](O)CC[C@]4(C)[C@H]3CC[C@]12C [Example 211, N-cyclopropyl-4-((R)-4-((3S,8S,9S,10R,13R,14S,17R)-3-hydroxy-10,13-dimethyl-2,3,4,7,8,9,10,11,12,13,14,15,16,17-tetradecahydro-1H-cyclopenta[a]phenanthren-17-yl)pentanoyl)-N-methylpiperazine-1-carboxamide] | – | > 10 | < 0.25
5 | C[C@H](CCC(=O)N(C)C)[C@H]1CC[C@H]2[C@@H]3CC=C4CC(F)(F)CC[C@]4(C)[C@H]3CC[C@]12C [Example 127, (R)-4-((8S,9S,10R,13R,14S,17R)-3,3-difluoro-10,13-dimethyl-2,3,4,7,8,9,10,11,12,13,14,15,16,17-tetradecahydro-1H-cyclopenta[a]phenanthren-17-yl) -N,N-dimethylpentanamide] | > 10 | > 10 | –
6 | CC(=O)N1C[C@@H]2CN(C(=O)CC[C@@H](C)[C@H]3CC[C@H]4[C@@H]5CC=C6C[C@@H](O)CC[C@]6(C)[C@H]5CC[C@]34C)C[C@@H]2C1 [Example 318, (4R)-1-[(3aR,6aS)-5-acetyl-octahydropyrrolo[3,4-c]pyrrol-2-yl]-4-[(1R,3aS,3bS,7S,9aR,9bS,11aR)-7-hydroxy-9a,11a-dimethyl-1H,2H,3H,3aH,3bH,4H,6H,7H,8H,9H,9aH,9bH,10H,11H,11aH-cyclopenta[a]phenanthren-1-yl]pentan-1-one] | 0.25 to 1 | > 10 | –
7 | CCN(C(=O)C(=O)O[C@@H](C)[C@H]1CC[C@H]2[C@@H]3CC=C4C[C@@H](O)CC[C@]4(C)[C@H]3CC[C@]12C)C(C)C [Example 197, (S)-1-((3S,8S,9S,10R,13S,14S,17S)-3-hydroxy-10,13-dimethyl-2,3,4,7,8,9,10,11,12,13,14,15,16,17-tetradecahydro-1H-cyclopenta[a]phenanthren-17-yl)ethyl 2-(ethyl(isopropyl)amino)-2-oxoacetate] | < 0.25 | 0.25 to 1 | –
8 | C[C@H](CCc1cscn1)[C@H]1CC[C@H]2[C@@H]3CC=C4C[C@@H](O)CC[C@]4(C)[C@H]3CC[C@]12C [Example 175, (1R,3aS,3bS,7S,9aR,9bS,11aR)-9a,11a-dimethyl-1-[(2R)-4-(1,3-thiazol-4-yl)butan-2-yl]-1H,2H,3H,3aH,3bH,4H,6H,7H,8H,9H,9aH,9bH,10H,11H,11aH-cyclopenta[a]phenanthren-7-ol] | < 0.25 | 1 to 10 | –
9 | C[C@H](CCC(=O)N1CCN(C(=O)c2cn(C)nn2)[C@@H](C)C1)[C@H]1CC[C@H]2[C@@H]3CC=C4C[C@@H](O)CC[C@]4(C)[C@H]3CC[C@]12C [Example 574, (R)-4-((3S,8S,9S,10R,13R,14S,17R)-3-hydroxy-10,13-dimethyl-2,3,4,7,8,9,10,11,12,13,14,15,16,17-tetradecahydro-1H-cyclopenta[a]phenanthren-17-yl)-1-((S)-3-methyl-4-(1-methyl-1H-1,2,3-triazole-4-carbonyl)piperazin-1-yl)pentan-1-one] | < 0.25 | > 10 | –
10 | C[C@H](CCc1cccc(Cl)n1)[C@H]1CC[C@H]2[C@@H]3CC=C4C[C@@H](O)CC[C@]4(C)[C@H]3CC[C@]12C [Example 165, (3S,8S,9S,10R,13R,14S,17R)-17-((R)-4-(6-chloropyridin-2-yl)butan-2-yl)-10,13-dimethyl-2,3,4,7,8,9,10,11,12,13,14,15,16,17-tetradecahydro-1H-cyclopenta[a]phenanthren-3-ol] | 0.25 to 1 | > 10 | –
11 | C[C@H](CCC(=O)N1CCC(OC(=O)N(C)C)CC1)[C@H]1CC[C@H]2[C@@H]3CC=C4C[C@@H](O)CC[C@]4(C)[C@H]3CC[C@]12C [Example 286, 1-((R)-4-((3S,8S,9S,10R,13R,14S,17R)-3-hydroxy-10,13-dimethyl-2,3,4,7,8,9,10,11,12,13,14,15,16,17-tetradecahydro-1H-cyclopenta[a]phenanthren-17-yl)pentanoyl)piperidin-4-yl dimethylcarbamate] | < 0.25 | > 10 | –
12 | C[C@H](CCc1nccs1)[C@H]1CC[C@H]2[C@@H]3CC=C4C[C@@H](O)CC[C@]4(C)[C@H]3CC[C@]12C [Example 172, (1R,3aS,3bS,7S,9aR,9bS,11aR)-9a,11a-dimethyl-1-[(2R)-4-(1,3-thiazol-2-yl)butan-2-yl]-1H,2H,3H,3aH,3bH,4H,6H,7H,8H,9H,9aH,9bH,10H,11H,11aH-cyclopenta[a]phenanthren-7-ol] | 0.25 to 1 | 1 to 10 | –
13 | C[C@H](CCC(=O)N1CCN(C(=O)c2cnn(C)c2)C[C@@H]1C)[C@H]1CC[C@H]2[C@@H]3CC=C4C[C@@H](O)CC[C@]4(C)[C@H]3CC[C@]12C [Example 578, (R)-4-((3S,8S,9S,10R,13R,14S,17R)-3-hydroxy-10,13-dimethyl-2,3,4,7,8,9,10,11,12,13,14,15,16,17-tetradecahydro-1H-cyclopenta[a]phenanthren-17-yl)-1-((S)-2-methyl-4-(1-methyl-1H-pyrazole-4-carbonyl)piperazin-1-yl)pentan-1-one] | < 0.25 | > 10 | –
14 | C[C@H](CCC(=O)N1CCN(C(=O)C2CCCC2)CC1)[C@H]1CC[C@H]2[C@@H]3CC=C4C[C@@H](O)CC[C@]4(C)[C@H]3CC[C@]12C [Example 515, (R)-1-(4-(cyclopentanecarbonyl)piperazin-1-yl)-4-((3S,8S,9S,10R,13R,14S,17R)-3-hydroxy-10,13-dimethyl-2,3,4,7,8,9,10,11,12,13,14,15,16,17-tetradecahydro-1H-cyclopenta[a]phenanthren-17-yl)pentan-1-one] | < 0.25 | > 10 | –
15 | C[C@H](CCC(=O)N1CCC(S(=O)(=O)N(C)C)CC1)[C@H]1CC[C@H]2[C@@H]3CC=C4C[C@@H](O)CC[C@]4(C)[C@H]3CC[C@]12C [Example 413, 1-((R)-4-((3S,8S,9S,10R,13R,14S,17R)-3-hydroxy-10,13-dimethyl-2,3,4,7,8,9,10,11,12,13,14,15,16,17-tetradecahydro-1H-cyclopenta[a]phenanthren-17-yl)pentanoyl)-N,N-dimethylpiperidine-4-sulfonamide] | 0.25 to 1 | > 10 | –
16 | CC1CN(C(=O)N2CCN(C(=O)CC[C@@H](C)[C@H]3CC[C@H]4[C@@H]5CC=C6C[C@@H](O)CC[C@]6(C)[C@H]5CC[C@]34C)CC2)C1 [Example 664, (R)-4-((3S,8S,9S,10R,13R,14S,17R)-3-hydroxy-10,13-dimethyl-2,3,4,7,8,9,10,11,12,13,14,15,16,17-tetradecahydro-1H-cyclopenta[a]phenanthren-17-yl)-1-(4-(3-methylazetidine-1-carbonyl)piperazin-1-yl)pentan-1-one] | < 0.25 | > 10 | –
17 | C[C@H](CCC(=O)N1CC2(CC(O)C2)C1)[C@H]1CC[C@H]2[C@@H]3CC=C4C[C@@H](O)CC[C@]4(C)[C@H]3CC[C@]12C [Example 100, (R)-4-((3S,8S,9S,10R,13R,14S,17R)-3-hydroxy-10,13-dimethyl-2,3,4,7,8,9,10,11,12,13,14,15,16,17-tetradecahydro-1H-cyclopenta[a]phenanthren-17-yl)-1-(6-hydroxy-2-azaspiro[3.3]heptan-2-yl)pentan-1-one] | < 0.25 | > 10 | –
18 | C[C@@H]1CCCN(C(=O)CC[C@@H](C)[C@H]2CC[C@H]3[C@@H]4CC=C5C[C@@H](O)CC[C@]5(C)[C@H]4CC[C@]23C)C1 [Example 111, (R)-4-((3S,8S,9S,10R,13R,14S,17R)-3-hydroxy-10,13-dimethyl-2,3,4,7,8,9,10,11,12,13,14,15,16,17-tetradecahydro-1H-cyclopenta[a]phenanthren-17-yl)-1-((R)-3-methylpiperidin-1-yl) pentan-1-one] | < 0.25 | 0.25 to 1 | –
19 | CC(=O)N(C)[C@H]1CCN(C(=O)CC[C@@H](C)[C@H]2CC[C@H]3[C@@H]4CC=C5C[C@@H](O)CC[C@]5(C)[C@H]4CC[C@]23C)C1 [Example 321, N—((S)-1-((R)-4-((3S,8S,9S,10R,13R,14S,17R)-3-hydroxy-10,13-dimethyl-2,3,4,7,8,9,10,11,12,13,14,15,16,17-tetradecahydro-1H-cyclopenta[a]phenanthren-17-yl)pentanoyl)pyrrolidin-3-yl)-N-methylacetamide] | < 0.25 | > 10 | –
